Experimental data reported in paper PMC4467156, “A new chemical inhibitor of angiogenesis and tumorigenesis that targets the VEGF signaling pathway upstream of Ras” (Oncotarget, 2015).

Experiments:
[1] = test system: HMVECd cells; test: 3H-thymidine incorporation, HMVECd; type: cell-based, human; conditions: 24 h
Experimental: Cells were treated with molecules in complete medium. After 22 h, 1 μCi per well H^3 thymidine was added for 2 hours. Cells are then fixed by 10% trichloroacetic acid and harvested with 0.2N NaOH, 1% SDS. Radioactivity was measured in a beta counter.

[2] = Tolerance in treated LLC/2 tumor-bearing mice; type: in vivo, mouse; conditions: two week-long treatment with up to 16 mg/kg i.p.
Experimental: We chose this model because of its rapid growth in syngenic mice and its strong dependence on angiogenesis. LLC/2 cells (10^6 in 50 μL medium) were subcutaneously injected into the right flank of […] mice. Seven days after tumor inoculation, mice were given an intraperitoneal (i.p.) injection of either solvent (1.7% DMSO) or COB223 every other day. Tumor size was measured with calipers, and the volume was calculated according to the formula (L*w^2)/2 where L and […] stand for length and width respectively. All mice were killed 21 days after tumor grafting.

[3] = test system: HUVEC cells; test: Binding of 125I-VEGF-A121 to HUVEC cells; parameters: species or system human; conditions: data not shown
[4] = molecular target: FGFR2 (Homo sapiens, UniProt P21802); test: In vitro kinase assay FGFR2; type: biochemical; conditions: concentrations up to 50 μM
Sequence of FGFR2 (P21802 22-821, species assumed): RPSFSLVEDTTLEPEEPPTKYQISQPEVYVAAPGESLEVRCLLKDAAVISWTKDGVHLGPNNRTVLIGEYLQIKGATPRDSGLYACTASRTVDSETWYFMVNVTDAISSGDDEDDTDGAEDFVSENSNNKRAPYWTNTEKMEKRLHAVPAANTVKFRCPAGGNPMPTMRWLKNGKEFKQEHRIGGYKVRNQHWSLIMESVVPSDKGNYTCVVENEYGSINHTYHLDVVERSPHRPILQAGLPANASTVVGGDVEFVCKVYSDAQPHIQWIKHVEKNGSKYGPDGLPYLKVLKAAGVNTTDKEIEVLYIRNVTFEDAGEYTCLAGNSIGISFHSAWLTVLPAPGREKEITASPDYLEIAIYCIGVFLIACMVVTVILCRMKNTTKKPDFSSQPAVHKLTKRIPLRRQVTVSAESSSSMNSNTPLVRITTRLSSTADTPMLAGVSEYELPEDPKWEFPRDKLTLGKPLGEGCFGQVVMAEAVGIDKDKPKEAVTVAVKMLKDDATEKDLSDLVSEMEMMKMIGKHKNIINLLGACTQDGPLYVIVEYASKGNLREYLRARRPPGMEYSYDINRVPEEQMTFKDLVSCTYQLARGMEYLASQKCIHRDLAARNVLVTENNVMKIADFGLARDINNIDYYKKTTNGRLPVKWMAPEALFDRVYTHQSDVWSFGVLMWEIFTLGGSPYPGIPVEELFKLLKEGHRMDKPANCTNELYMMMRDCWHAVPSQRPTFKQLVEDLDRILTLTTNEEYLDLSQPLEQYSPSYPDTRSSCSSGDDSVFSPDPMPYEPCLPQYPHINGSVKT
Experimental: (§1) We first wondered whether COB223 required to be internalized to exert its biological effect. For this, we synthesized a covalent complex between BSA and COB223 and purified it. […] In vitro kinase assays were performed with a panel of purified protein-kinases involved in mitogenic signaling, including VEGFR2, FGFR1, FGFR2, PDGFRß, Met, Raf, MEK1, ERK1, ERK2, PKCα, PKCβI, PKCβII, PKCζ as indicated in Table 2. […] We then analyzed the effect of COB223 on VEGF-induced phosphorylations of VEGFR2, MEK and ERK1/2 (Figure 9). […] (Figure 9A, 9B). […] It was also specific of the p42/p44 MAP kinase pathway as activation of p38 MAP kinase phosphorylation in HUVEC cells by VEGF or serum was unaffected by COB223 (data not shown). The activation of src phosphorylation by VEGF in HUVECs was also unaffected by COB223 (data not shown).

[5] = molecular target: PKCβI (Homo sapiens, UniProt P05771); test: In vitro kinase assay PKCβI; type: biochemical; conditions: concentrations up to 50 μM
Sequence of PKCβI (P05771 whole entry): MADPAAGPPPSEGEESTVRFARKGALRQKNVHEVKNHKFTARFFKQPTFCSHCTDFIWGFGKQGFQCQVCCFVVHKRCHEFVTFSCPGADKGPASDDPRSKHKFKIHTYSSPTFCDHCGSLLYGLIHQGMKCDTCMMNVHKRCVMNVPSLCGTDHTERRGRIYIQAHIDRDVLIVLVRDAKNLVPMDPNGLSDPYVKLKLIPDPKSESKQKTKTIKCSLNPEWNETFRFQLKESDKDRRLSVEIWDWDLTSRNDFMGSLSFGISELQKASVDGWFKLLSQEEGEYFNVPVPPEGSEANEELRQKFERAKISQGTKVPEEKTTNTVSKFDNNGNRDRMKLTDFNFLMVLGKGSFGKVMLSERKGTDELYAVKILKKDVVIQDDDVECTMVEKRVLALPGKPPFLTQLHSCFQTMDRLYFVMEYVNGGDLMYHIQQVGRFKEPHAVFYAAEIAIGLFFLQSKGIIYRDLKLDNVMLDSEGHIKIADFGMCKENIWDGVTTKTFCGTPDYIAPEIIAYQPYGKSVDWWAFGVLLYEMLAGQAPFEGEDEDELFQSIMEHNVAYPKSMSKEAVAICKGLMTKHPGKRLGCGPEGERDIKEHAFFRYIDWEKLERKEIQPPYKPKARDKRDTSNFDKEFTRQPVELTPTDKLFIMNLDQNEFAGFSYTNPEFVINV
Experimental: as §1

[6] = molecular target: PKC ζ (Homo sapiens, UniProt Q05513); test: In vitro kinase assay PKC ζ; type: biochemical; conditions: concentrations up to 50 μM
Sequence of PKC ζ (Q05513 whole entry): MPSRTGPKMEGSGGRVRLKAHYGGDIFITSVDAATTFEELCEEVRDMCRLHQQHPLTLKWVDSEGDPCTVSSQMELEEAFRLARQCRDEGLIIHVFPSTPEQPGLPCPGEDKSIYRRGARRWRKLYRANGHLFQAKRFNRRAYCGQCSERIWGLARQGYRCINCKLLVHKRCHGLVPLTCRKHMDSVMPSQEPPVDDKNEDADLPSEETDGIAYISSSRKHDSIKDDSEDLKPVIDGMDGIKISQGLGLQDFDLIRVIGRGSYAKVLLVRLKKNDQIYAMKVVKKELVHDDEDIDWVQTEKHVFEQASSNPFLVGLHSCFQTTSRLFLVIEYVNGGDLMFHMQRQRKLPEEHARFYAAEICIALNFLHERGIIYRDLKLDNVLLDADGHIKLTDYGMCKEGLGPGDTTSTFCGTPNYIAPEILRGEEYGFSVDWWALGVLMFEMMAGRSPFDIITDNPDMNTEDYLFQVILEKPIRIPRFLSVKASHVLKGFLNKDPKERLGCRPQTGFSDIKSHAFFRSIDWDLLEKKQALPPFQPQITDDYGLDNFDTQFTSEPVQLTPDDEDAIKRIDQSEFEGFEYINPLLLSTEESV
Experimental: as §1

[7] = test system: ERK1/2 phosphorylation; test: Western blot, ERK1/2 phosphorylation in HUVEC; type: cell-based, human
Experimental: Figure 9 Effect of COB223 on growth factor-induced VEGF-R2, MEK and ERK phosphorylations (A) Serum-starved HUVEC cells were incubated for 15 min in the presence of either 10 ng/mL VEGF-A or 20 ng/mL FGF-2 and in the absence or the presence of 25 μM COB223. The phosphorylations of VEGFR2 on tyrosine 1175 or tyrosine 1214, of MEK and ERK1/2 were then analyzed by Western blot analysis of the cell lysates as described in Material and Methods. Western blots for total VEGFR2, MEK and ERK1/2 were used as loading controls. The blots shown in Figure 9A were obtained in one representative experiment. (B) The hybridization signals observed in 5 similar but independent experiments were quantitated and the ratios between phospho-VEGFR2(Y1175) or (Y1214) and VEGFR2 signals were normalized to the value observed in the absence of COB223. (C) The hybridization signals observed in 5 similar but independent experiments were quantitated and the ratios between phospho-ERK1/2 and ERK1/2 and between phospho-MEK and MEK were normalized to the values observed in the absence of COB223. Additional experiments performed with 10% fetal calf serum (FCS) as a mitogen were included in this analysis. * : p < 0.05; ** : p < 0.01
Figure 10 Effect of PKC inhibitors on PMA-, VEGF- and FGF2-induced ERK phoshorylation (A) Serum-starved HUVEC cells were incubated for 15 min in the presence of 10 ng/mL VEGF-A or 20 ng/mL FGF-2 and in the absence or the presence of 25 μM COB223 or 5 μM Gö6983 and 5 μM Gö6976. The phosphorylation ERK1/2 was then analyzed by Western blot analysis of the cell lysates as described in Material and Methods. Western blots for total ERK1/2 were used as loading controls. (B) Serum-starved HUVEC cells were incubated for 5 min in the presence of 200 nM of PMA and in the absence or the presence of 25 μM COB223 or 5 μM Gö6983 and 5 μM Gö6976. The hybridization signals observed were quantitated and the ratio between phospho-ERK1/2 and ERK1/2 was normalized to the values observed in the absence of COB223. Similar results were obtained in 2 independent experiments.
Serum-starved HUVEC cells were incubated for 15 min in the presence of either 10 ng/mL VEGF-A or 20 ng/mL FGF-2 and in the absence or the presence of indicated concentration of COB223. COB223 was incubated 15 min prior to stimulation. Cells were lysed in RIPA buffer ( Tris HCl pH 7.4 10 mM, NaCl 150 mM, SDS 0.1%, Na Deoxycholate 0.5%, EDTA 1 mM, Triton X100 1% and protease inhibitor cocktail (Sigma) for protein extraction. After fractionation of proteins on a 4–15% SDS-PAGE gel and blotting to a nitrocellulose membrane, immunoblotting detection of proteins was done using indicated antibodies according to manufacturer's instruction.

[8] = test system: Raf phosphorylation; test: Western blot, Raf phosphorylation in HUVEC; type: cell-based, human; conditions: 10 ng/mL VEGF-A 15 min, 25 μM COB223
Experimental: Figure 11 Effect of COB223 on mitogenic or oncogenic activation of the Ras /MEK/ERK signaling pathway (A) Serum-starved HUVEC cells were incubated for 15 min in the presence of 10 ng/mL VEGF-A and in the absence or the presence of 25 μM COB223. The phosphorylations of PLCγ on tyrosine 783, of Raf on serine 338 or on serine 259 and of ERK1/2 were then analyzed by Western blot analysis of the cell lysates as described in Material and Methods. Western blots for total PLCγ, Raf and ERK1/2 were used as loading controls. (B) MCF10A cells overexpressing an oncogenic version of Ras (MCF10A-RasG12V) were treated for the indicated periods of time by 25 μM COB223. Total ERK1/2 and phospho-ERK1/2 were then visualized by Western blotting of the cell extracts. Non-treated regular MCF10A cells were analyzed as a control (first lane). (C) CCL-39 fibroblasts expressing a constitutively active Raf in an estrogen-responsive manner were stimulated for 3 h with estradiol and treated for 15 or 30 min with 25 μM COB223. Total ERK1/2 and phospho-ERK1/2 were then visualized by Western blotting of the cell extracts. Non-treated cells were analyzed as a control (left lanes).
Serum-starved HUVEC cells were incubated for 15 min in the presence of either 10 ng/mL VEGF-A or 20 ng/mL FGF-2 and in the absence or the presence of indicated concentration of COB223. COB223 was incubated 15 min prior to stimulation. […]

CN(C)c1cccc2c(S(=O)(=O)NCCCN3CCN(CCCNC(=O)OC(C)(C)C)CC3)cccc12 [COB223, tert-Butyl 3-(4-(3-(5-(dimethylamino)naphthalene-1-sulfonamido)propyl)piperazin-1-yl) propylcarbamate]
concentrations inhibiting thymidine incorporation [1]: above 5 μM | tolerance, adverse effects [2]: no adverse effect was observed | binding of 125I-VEGF-A121 to HUVEC cells [3]: unaffected | kinase inhibition [4]: None of them was inhibited | kinase inhibition [5]: None of them was inhibited | kinase inhibition [6]: None of them was inhibited | VEGF-induced phosphorylation of ERK1/2 ([7]; HUVEC, 10 ng/mL VEGF-A 15 min, 25 μM COB223): significantly inhibited | phosphorylation of ERK1/2 induced by the PKC activator PMA ([7]; HUVEC, 200 nM PMA 5 min, 25 μM COB223): inhibited | concentration at which inhibition of MAP kinase phosphorylation was detectable ([7]; dose-response study): 5 µM | concentration at which inhibition of MAP kinase phosphorylation was statistically significant ([7]; dose-response study): 20 µM | phosphorylation of Raf on residue S338 [8]: inhibited
